Test results published in PubChem BioAssay (NCI).
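Grown in 96-well plates, cells were treated for 48 hours with each compound at five concentrations. Insufficient inhibition: endpoint recorded as highest concentration tested. Here, GI50 denotes the concentration required for 50% inhibition of growth. At the TGI there is no net growth.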

Tests used:
Assay in all cases: NCI-60 cell line screen, 48 h
OVCAR-8 ovarian = test system: OVCAR-8 ovarian
SF-539 CNS = test system: SF-539 CNS
NCI/ADR-RES ovarian = test system: NCI/ADR-RES ovarian
LOX IMVI melanoma = test system: LOX IMVI melanoma
HCT-15 colon = test system: HCT-15 colon
UACC-257 melanoma = test system: UACC-257 melanoma
NCI-H522 lung = test system: NCI-H522 lung
CCRF-CEM leukemia = test system: CCRF-CEM leukemia
K-562 leukemia = test system: K-562 leukemia
SW-620 colon = test system: SW-620 colon

| SMILES | GI50 (OVCAR-8 ovarian) [µM] | TGI (OVCAR-8 ovarian) [µM] | GI50 (SF-539 CNS) [µM] | TGI (SF-539 CNS) [µM] | GI50 (NCI/ADR-RES ovarian) [µM] | TGI (NCI/ADR-RES ovarian) [µM] | GI50 (LOX IMVI melanoma) [µM] | TGI (LOX IMVI melanoma) [µM] | GI50 (HCT-15 colon) [µM] | TGI (HCT-15 colon) [µM] | GI50 (UACC-257 melanoma) [µM] | TGI (UACC-257 melanoma) [µM] | GI50 (NCI-H522 lung) [µM] | TGI (NCI-H522 lung) [µM] | GI50 (CCRF-CEM leukemia) [µM] | TGI (CCRF-CEM leukemia) [µM] | GI50 (K-562 leukemia) [µM] | TGI (K-562 leukemia) [µM] | GI50 (SW-620 colon) [µM] | TGI (SW-620 colon) [µM] |
| --- | --- | --- | --- | --- | --- | --- | --- | --- | --- | --- | --- | --- | --- | --- | --- | --- | --- | --- | --- | --- |
| C=C/C(C)=C/C[C@]1(C)[C@H](C)[C@@H](OC(=O)CCC)[C@H](O)[C@@]23C(=C[C@H](OC)C[C@@H]12)[C@@H](OC(=O)CCC)O[C@H]3OC(C)=O | 0.447 | 2.42 | 0.566 | 1.6 | 0.88 | 2.46 | 1.22 | 2.56 | 0.34 | 1.29 | 0.854 | 2.56 | 0.239 | 0.741 | 0.382 | 1.66 | 0.438 | 2.41 | 0.333 | 1.21 |
| COc1cc2ncnc(-n3ncc4cc(NC(=O)Nc5ccc(Cl)c(Cl)c5)ccc43)c2cc1OC | 2.77 | 7.07 | 0.612 | 2.47 | 2.36 | 6.23 | 1.97 | 3.76 | 1.93 | 4.87 | 3.23 | 6.79 | 2.5 | 6 | 4.01 | 42.3 | 3.02 | 10.8 | 2.26 | 4.76 |
| CN(C)c1ccc(/C=C2\N=C(c3ccccc3)N(c3cc(C(F)(F)F)ccc3Cl)C2=O)cc1 | > 100 | > 100 | > 100 | > 100 | > 100 | > 100 | > 100 | > 100 | > 100 | > 100 | > 100 | > 100 | > 100 | > 100 | > 100 | > 100 | > 100 | > 100 | > 100 | > 100 |
| Cn1cccc1-c1cc(-c2ccccc2)[nH]c(=O)c1C#N | > 100 | > 100 | > 100 | > 100 | > 100 | > 100 | > 100 | > 100 | > 100 | > 100 | > 100 | > 100 | > 100 | > 100 | > 100 | > 100 | > 100 | > 100 | > 100 | > 100 |
| O=C1C2=C(C(=O)c3cnccc31)C1C=CC2CC1 (stereo not drawn) | 0.715 | 2.09 | 2.27 | 4.5 | 1.51 | 3.5 | 0.773 | 2.19 | 2.28 | 4.94 | 1.72 | 3.17 | 1.96 | 4.1 | 0.66 |  | 1.64 |  | 1.85 | 3.44 |
| COC(=O)C12CC(NC(=O)c3csc([C@@H](C[C@H](C(C)C)N(C)C(=O)[C@@H](NC(=O)[C@H]4CCCCN4C)C4CC4)OC(C)=O)n3)(C1)C2 | 0.0501 | > 16.7 | 0.00853 | 0.0613 | 4.69 | > 16.7 | 0.0144 | > 16.7 | 0.112 | > 16.7 | > 16.7 | > 16.7 | 0.00375 | 3.15 | 0.00613 | > 8.79 | 0.00549 | > 16.7 | 0.0114 | > 16.7 |
| O=S1(=O)N(Cc2ccccc2)[C@@H](Cc2ccccc2)[C@H](O)[C@H](O)[C@H](Cc2ccccc2)N1Cc1ccccc1 | 4.2 | 11.2 | 3.37 | 6.76 | 3.4 | 8.58 | 3.28 | 7.09 | 4.37 | 18.2 | 2.89 | 5.93 | 0.847 | 4.79 | 5.96 | > 20 | 3.05 | 9.38 | 3.18 | 7.12 |
| CCN1CCN(c2cc(C)nc(N(CCCNc3ccnc4cc(Cl)ccc34)Cc3ccc4c(c3)OCO4)n2)CC1 | 3.19 | 14.4 | 1.73 | 3.21 | 3.22 | 58.5 | 1.89 | 3.7 | 2.24 | 8.42 | 1.72 | 3.23 | 2.03 | 4.76 | 2.38 | 7.43 | 1.91 | 7.86 | 2.81 | 12.5 |
| Oc1c(Cl)cc(Cl)c2ccc(Cn3cc(-c4cc(C(F)(F)F)cc(C(F)(F)F)c4)nn3)nc12 | 2.79 | 9.94 | 1.53 | 2.94 | 22.1 | 71.6 | 0.317 | 1.28 | 1.58 | 3.55 | 1.22 | 2.99 | 1.25 | 3.55 | 0.305 | 5.49 | 0.313 | > 100 | 0.473 | 1.81 |
| Cc1cc(Nc2nc(C(=O)Nc3ccccc3)nc3ccccc23)n[nH]1 | 14.5 | > 25 | > 25 | > 25 | 0.916 | > 25 | 4.47 | > 25 | 1.39 | > 25 | > 25 | > 25 | 6.37 | > 25 | 4 | > 25 | 7.94 | > 25 | 9.7 | > 25 |
| CCOc1ccc(/C(C=O)=C(\Cl)c2ccc(OC)cc2)cc1 |  | > 100 |  | > 100 |  | > 100 |  | > 100 |  | > 100 |  | > 100 |  | > 100 |  | > 100 |  | > 100 |  | > 100 |
| O=C(Nc1ccc(-n2ccc3c(NC(=O)c4ccccc4)ncnc32)cc1)c1cccc(C(F)(F)F)c1 | 1.16 | 29.2 | 1.11 | > 93.3 | 2.67 | 37.4 | 0.218 | 5.83 | 0.0643 | 24.8 | 10.2 | 32.1 | 1.87 | 20.6 | 0.346 | 25.2 | 0.13 | > 53.8 | 1.05 | 18.8 |
| c1cc(-c2nnc(SSc3ncnc4nc[nH]c34)o2)ccn1 | 3.26 | > 100 | 1.84 | > 100 | 2.74 | > 100 | 0.297 | 17.3 | 2.8 | > 100 | 9.34 | > 100 | 1.63 | > 100 | 1.24 | > 100 | 0.351 | > 100 | 3.38 | > 100 |
